The values that follow come from patent publication US20100120701A1, “Compositions and Methods For Engineering Probiotic Yeast” (Glycosyn, Inc., priority 2008, published 2010).

One assay relates to calicivirus diarrhea. Description: Calicivirus diarrhea in breastfed infants by milk oligosaccharide level. It counts as in vivo, human. As to conditions: 93 nursing children consuming milk with high amounts; Poisson regression, P=0.012. Here is the method:
Milk samples were obtained weeks 2-5 postpartum from 93 Mexican mothers; the mothers and infants were followed from birth up to 2 yr postpartum. The clinical histories of the infants were recorded prospectively, and concentrations of individual oligosaccharides in these milk samples were measured. The most common oligosaccharides in maternal milk were those that were fucosylated, comprising 73% (50%-92%) of total oligosaccharide. Of these, 2′FL, the oligosaccharide homolog of the Lewis H-2 epitope, was the most common in the milks of all mothers. The mean concentration of 2′FL in milk was 3854±108 nmol/mL (34% of total fucosylated oligosaccharides), but varied greatly among mothers according to their Lewis blood group type.
Thus, human milk containing high levels of specific oligosaccharides are associated with decreased risk of pathogen-specific diarrhea and diarrhea overall. […] Because both the oligosaccharide and the high-molecular-weight glycans that share the same glycan epitope are synthesized by the same fucosyltransferase, the relationship between the oligosaccharide expression in milk and decreased risk in the infant reflects the synthetic capacity of the mother for both the free oligosaccharide and the homologous glycan. Specific human milk oligosaccharides protect breastfed children from disease by inhibiting binding of pathogens to the child's intestinal receptors.

The next assay deals with Campylobacter jejuni. Description: C. jejuni binding to CHO cells transfected with a human α(1,2)-fucosyltransferase gene. The note with it: CHO cells overexpressing H-2 antigen. It counts as cell-based.

For the molecule `CC(=O)N[C@H]1[C@H](O[C@H]2[C@@H](O)[C@@H](CO)O[C@@H](O[C@H]3[C@H](O)[C@@H](O)C(O)O[C@@H]3CO)[C@@H]2O)O[C@H](CO)[C@@H](O[C@@H]2O[C@@H](C)[C@@H](O)[C@@H](O)[C@@H]2O)[C@@H]1O[C@@H]1O[C@H](CO)[C@H](O)[C@H](O)[C@H]1O[C@@H]1O[C@@H](C)[C@@H](O)[C@@H](O)[C@@H]1O` (some centres unmarked) [LDFH-I], in the assay with calicivirus diarrhea, the “protection against calicivirus diarrhea” value was “associated with protection”.

B1: UEA I: ligand (lectin) that binds to H-2 (protein, UniProt P22972 1-243, looked up)
Anti-H(O) lectin 1: SDDLSFKFKNFSQNGKDLSFQGDASVIETGVLQLNKVGNNLPDETGGIARYIAPIHIWNCNTGEVASFITSFSFFMETSANPKAATDGLTFFLAPPDSPLRRAGGYFGLFEDTKDNDSSYQTVAVEFDTIGSPVNFDDPGFPHIGIDVNRVKSINAERWNKRYGLNNVANVEIIYEASSKTLTASLTYPSDQTSISVTSIVDLKEILPEWVSVGFSGGTYIGRQATHEVLNWYFTSNLINTNS
Take B1: the “inhibition of C. jejuni binding to transfected CHO cells” value in the assay with Campylobacter jejuni is “inhibited”.
